Consider 22 compounds from PubChem BioAssay (NCI).

Where “and” joins values, the source holds several entries; their conditions need not be identical. Equal entries are not always repeated.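 Values below derive from 48-hour exposures of cells grown in 96-well plates, with endpoints linearly interpolated between the two concentrations bracketing the appropriate inhibition level. GI50 = concentration required for 50% inhibition of growth. TGI marks complete inhibition of growth.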

What all share (test): NCI-60 cell line screen, 48 h
The subject of assay [1] is HT29 colon.
Assay [2] concerns KM12 colon.
Assay [3] has as its system MALME-3M melanoma.
Assay [4] relates to MCF7 breast.
Assay [5] has as its system OVCAR-8 ovarian.
Assay [6] deals with RXF 393 renal.
Assay [7] deals with SF-539 CNS.
Assay [8] relates to SK-OV-3 ovarian.
Assay [9] concerns TK-10 renal.
The subject of assay [10] is MOLT-4 leukemia.

As for `O=C(Cn1c(=O)c(-c2ccccc2)nc2ccccc21)Nc1ccc(F)cc1`, the GI50 in assay [1] was above 100 µM; in [2] it was above 100 µM; in [3], 43 µM; in assay [4] it was 98.7 µM; in assay [5], 39.6 µM; in [6], 35.5 µM. Also, the GI50 is 4.03 µM in assay [7], 64.8 µM in assay [8] and 85 µM in [9]. Also, the TGI in [1], in [2], in assay [3], in [4], in [5] and in [6] was above 100 µM throughout. Also, the TGI in assay [7] was 28.7 µM; in assay [8], above 100 µM; in assay [9] it was above 100 µM.

Turning to `C[C@]12CCC(=O)C=C1CC[C@@H]1C2CC[C@]2(C)Nc3c(cnn3-c3ccccc3)CC12` (stereo not given in full), the TGI in assay [1] was above 100 µM; in assay [2] it was above 10 µM; in [3] it was above 100 µM; in assay [10] it was above 100 µM; in [5], above 100 µM; in [6] it was above 100 µM. Also, the TGI in [7], in [8] and in assay [9] was above 100 µM each time.

With `CN1CCN(CCOc2ccc(-c3cnc4c(-c5ccc(C(F)(F)F)cc5)cnn4c3)cc2)CC1`, the GI50 was 0.993 µM in assay [1]; 1.71 µM in assay [2]; 1.48 µM in assay [3]; 1.21 µM in assay [4]; 1.75 µM in [5]; 1.55 µM in assay [6]. In addition, the GI50 in assay [7] was 1.64 µM; in assay [9], 1.72 µM. Further, the TGI in assay [1] stood at 2.38 µM; in assay [2] it was 3.21 µM; in assay [3] it was 2.89 µM; in assay [4], 2.86 µM; in [5], 3.46 µM; in [6], 3.07 µM. The TGI in assay [7] worked out at 3.04 µM; in assay [9], 3.24 µM.

As for `CC(C)CCCC(C)[C@H]1CCC2[C@@H]3CCC4Nc5nocc5C[C@]4(C)C3CC[C@@]21C` (stereo not given in full), the TGI in [1] is 37.1 µM; in assay [2] it was 38.4 µM; in [3], 40.2 µM; in [10] it was 46.5 µM; in [5] it was 35.9 µM; in assay [6] it was 28.5 µM. Moreover, the TGI is 33.5 µM in assay [7], 34.8 µM in [8] and 21.1 µM in assay [9].

Take `O=C1C2C3C=C4c5ccccc5N(c5ccccc5)C4(C2C(=O)N1c1ccc(Cl)cc1)[C@H]1C(=O)N(c2ccc(Cl)cc2)C(=O)[C@@H]31` (stereo not given in full): the TGI in assay [1], in [2], in assay [3], in assay [10], in assay [5] and in assay [6] was above 100 µM in each case. In addition, the TGI in assay [7], in assay [8] and in assay [9] was above 100 µM throughout.

As to `Cc1ccc(SSc2ccc(C)cc2C(=O)O)c(C(=O)O)c1`, the TGI in [1], in [2], in assay [3], in [10], in [5] and in [6] was above 100 µM in each case. In addition, the TGI in [7], in assay [8] and in [9] was above 100 µM in each case.

`Cc1cc(NCCCCCCNc2cc(C)nc3cc(N(C)C)ccc23)c2ccc(N(C)C)cc2n1`: the TGI was above 100 µM in assay [1]; above 100 µM in assay [2]; 62.6 µM in assay [3]; above 100 µM in [10]; above 100 µM in assay [5]; above 100 µM in [6]. Also, the figures for the TGI in assay [7], in assay [8] and in assay [9] were above 100 µM, 25 µM and above 100 µM, respectively.

For the compound `O=C1NC2(CCCCCC2)C2CCCCCCC12O` (stereo not given), the TGI in assay [1], in assay [2], in assay [3], in assay [10], in assay [5] and in [6] was above 100 µM throughout. Moreover, the TGI in assay [7], in assay [8] and in assay [9] was above 100 µM throughout.

`OCC(O)C(Cl)CCl` (stereo not given): the TGI in assay [1], in assay [2], in assay [3], in assay [4], in assay [10] and in assay [5] was above 100 µM in each case. The TGI in assay [7], in [8] and in assay [9] was above 100 µM throughout.

As for `O=C1c2cccc(NCCN=Cc3cc([N+](=O)[O-])ccc3O)c2C(=O)c2c(NCCN=Cc3cc([N+](=O)[O-])ccc3O)cccc21`, the GI50 in [1] is 1.26 µM; in assay [2], 2.8 µM; in assay [3], 16.7 µM; in assay [10], 0.648 µM; in [5], 2.55 µM; in assay [6], 7.01 µM. The results for the GI50 in [8] and in assay [9] were 18.9 µM and 28.5 µM, respectively. Moreover, the TGI in assay [1] was above 100 µM; in [2], above 100 µM; in [3], 83.2 µM; in [10] it was 16.7 µM; in [5] it was above 100 µM; in assay [6] it was above 100 µM. Also, the TGI in assay [8] and in assay [9] was above 100 µM throughout.

With `CCOC(=O)c1c2c(n(Cc3ccc(Cl)cc3Cl)c1C)-c1nc[nH]c1C(=O)C2=O`, the GI50 was 15.5 µM in assay [1]; 5.87 µM in [2]; 11.6 µM in assay [3]; 1.8 µM in assay [10]; 10.5 µM in [5]; 10.2 µM in assay [6]. The GI50 in assay [7] is 4.4 µM; in assay [8], 19.9 µM; in assay [9], 20.1 µM. The TGI in assay [1] turned out to be 28.8 µM; in assay [2] it was 19.4 µM; in assay [3] it was 27.4 µM; in [10], 3.97 µM; in assay [5], 22.2 µM; in assay [6], 22.7 µM. In addition, the TGI in [7] amounted to 16.4 µM; in assay [8], 34.2 µM; in assay [9] it was 41.2 µM.

Consider `COc1cc2ccccc2oc1=O`, for which the TGI in [1], in assay [2], in [3], in [4], in assay [10] and in assay [5] was above 100 µM throughout. For the same compound, the TGI in [6] was 48.5 µM; in assay [7], above 100 µM; in assay [9], above 100 µM.

With `CC(=O)NNc1nc(C)c(C(=O)/C=C/c2ccccc2Cl)s1`, the TGI in assay [1], in assay [2], in [3], in assay [10], in assay [5] and in [6] was above 100 µM in each case. The TGI in [7], in assay [8] and in [9] was above 100 µM throughout.

As to `COC1/C=C/C(C)C(C(C)C(OC)C(C)CCC(=O)C(C)C(C/C=C/N(C)C=O)OC)OC(=O)/C=C/C=C(\C)CC(OC)CC2=CC(=O)O[C@H](C2)C(C)C(OC)CC(OC)/C=C/C(C)C(OC)C1` (stereo not given in full), the GI50 in assay [1] is 0.0236 µM; in [2], 0.00696 µM; in assay [3], 0.0213 µM; in assay [10], 0.164 µM; in assay [5], 0.0227 µM; in assay [6], 0.0378 µM. For the same compound, the results for the GI50 in assay [8] and in assay [9] were 0.0382 µM and 0.0174 µM, respectively. Moreover, the TGI in assay [3] was 0.0582 µM and 0.0315 µM; in assay [10] it was 0.11 µM; in [5], 0.0768 µM and 0.196 µM; in [6] it was 0.141 µM and 0.0376 µM; in assay [8], 0.229 µM and 0.0297 µM; in assay [9] it was 0.0729 µM.

As for `O=C(O/C(=C(/N=Nc1ccccc1)c1ccccc1)c1ccccc1)c1ccccc1`, the TGI in [1], in [2], in assay [3], in assay [10], in assay [5] and in assay [6] was above 100 µM each time. Also, the TGI in assay [7], in assay [8] and in assay [9] was above 100 µM throughout.

As for `N.N.N.N.N.[Cl-].[Co+3].c1ccc(-c2nn[n-]n2)cc1`, the GI50 in assay [1], in [2], in assay [3], in assay [10], in assay [5] and in assay [6] was above 100 µM each time. In addition, the GI50 in assay [7], in [8] and in assay [9] was above 100 µM each time. For the same compound, the TGI in [1], in [2], in [3], in assay [10], in [5] and in assay [6] was above 100 µM throughout. For the same compound, the TGI in assay [7], in assay [8] and in [9] was above 100 µM each time.

Regarding `O=C(CC(=O)C1=CNc2ccccc2S1)C(=O)Nc1ccc(Cl)cc1`, the TGI in [1], in assay [2], in assay [3], in assay [10], in assay [5] and in [6] was above 50 µM throughout. In addition, the TGI in assay [7], in assay [8] and in assay [9] was above 50 µM throughout.

Turning to `O=C1Nc2nc3ccccc3n2N=C2CCCC12` (stereo not given), the TGI in assay [1], in [2], in [3], in assay [10], in assay [5] and in [6] was above 100 µM each time. In addition, the TGI in assay [7], in assay [8] and in [9] was above 100 µM in each case.

On to `CCOC1=C2C(=O)OC(=O)C2C2CCCCC2=C1` (stereo not given), for which the TGI in assay [1], in [2], in [3], in [10], in [5] and in assay [6] was above 100 µM each time. For the same compound, the TGI in assay [7], in [8] and in assay [9] was above 100 µM in each case.

Regarding `CCC(C)[C@H]1O[C@]2(C=C[C@@H]1C)C[C@@H]1C[C@@H](C/C=C(\C)[C@@H](OC3C[C@H](OC)C(O[C@H]4C[C@H](OC)[C@@H](O)[C@H](C)O4)[C@H](C)O3)[C@@H](C)/C=C/C=C3\CO[C@@H]4[C@H](O)C(C)=C[C@@H](C(=O)O1)[C@]34O)O2` (stereo not given in full), the GI50 was 0.857 µM in assay [1]; 1.67 µM in assay [2]; 1.85 µM in [4]; 1.72 µM in [5]; 0.939 µM in assay [6]; 1.5 µM in [7]. The GI50 was 2.17 µM in assay [8] and 1.07 µM in assay [9]. The TGI came out at 1.78 µM in assay [1]; 5.96 µM in assay [2]; 5.72 µM in assay [4]; 9.73 µM in assay [5]; 3.5 µM in assay [6]; 4.49 µM in [7]. Moreover, the TGI in assay [8] was determined as 8.23 µM; in assay [9] it was 2.74 µM.

On to `C1COCCN1.C1COCCN1.NC1CCCCC1N.[Cl-].[Pt+2]` (stereo not given), for which the GI50 in assay [1] was above 100 µM; in [2] it was above 100 µM; in assay [3], 50.6 µM; in assay [10] it was above 100 µM; in assay [5], above 100 µM; in assay [6], above 100 µM. The GI50 in [7], in assay [8] and in assay [9] was above 100 µM each time. The TGI in assay [1], in assay [2], in [3], in [10], in assay [5] and in assay [6] was above 100 µM throughout. The TGI in [7], in [8] and in assay [9] was above 100 µM each time.

In the case of `Cc1oc2c(C)c3oc(=O)cc(C)c3cc2c1CN1C(=O)C2OCCOCCOCCOCCOCCO[C@H]2C1=O` (stereo not given in full), the TGI in assay [1], in assay [2], in [3], in assay [10], in assay [5] and in assay [6] was above 100 µM throughout. The TGI in [7], in assay [8] and in assay [9] was above 100 µM in each case.
